Entries after “also recorded” stand apart in the source; their conditions may differ.
What was measured:
[1] = target: T1, DDB1•CRBN (Homo sapiens, UniProt Q96SW2); test: Competitive fluorescence anisotropy (polarization) vs thalidomide-Cy5; type: binding
T1 construct: made in house
Protocol: Competitive fluorescence polarization experiments were performed according to previously reported methods ([65]). All experiments were performed in 25 mM HEPES, […], 1 mM TCEP, pH 7.4. A pre-complexed sample was prepared by incubating DDB1-CRBN (400 nM) with thalidomide–Cy5 conjugate (fig. S2A) (80 nM) at RT for 30 minutes with gentle shaking (220 rpm). […] Polarization values were measured on an Infinite M1000 Pro microplate reader (Tecan) following 1 hour of incubation at RT with gentle shaking. A total of three independent measurements were acquired and averaged per biological sample to generate the values shown in figure S2C. All mP values were normalized between 0 and 100 using the formula NormalizedmP=[(x−minimum)/[…]]∗100 , where ‘‘x’’ is the mP value of the sample and ‘‘minimum’’ and ‘‘maximum’’ are the minimum and maximum mP values, respectively, across all samples. KD values were estimated from computed Ki-values as previously described ([65]).

[2] = system: degron-tagged eGFP; test: Degron-tagged eGFP degradation by flow cytometry in HEK293T cells; type: cell-based, human
[3] = target: full-length CRBN (MG-PACE circuit, SD31) (Homo sapiens, UniProt Q96SW2); test: Two-hybrid luciferase transcriptional activation in PMBN-permeabilized E. coli by compound-induced ternary complex of RR69–human full-length CRBN with ω–degron, about 1 h at 37 °C, four-parameter fit.; type: cell-based, E. coli S2060; settings: n = 3
Source text: (§1) To evolve ZFs that engage PT-179-bound CRBN, we constructed an MG-PACE circuit using the CRBN•IMiD•ZF molecular glue complex. […] We translationally fused CRBN to the DNA-binding protein RR69 and fused SD0 to the RNAP ω-subunit, then measured transcriptional activation by luminescence (Fig. 2A).
(§2) Figure 2. […] (A) Full-length CRBN MG-PACE circuit. (B) CRBNCTD MG-PACE circuit. […] Values and error bars in (C), (E), and (H) represent the mean and standard deviation of three replicates, each normalized to a control treatment with DMSO only. Dashed vertical lines in (D), (F), and (G) represent neutral drift passages.
(§3) Chemically competent S2060 cells were co-transformed with accessory and complementary plasmids (Table S1).

[4] = target: full-length CRBN (MG-PACE circuit, SD36) (Homo sapiens, UniProt Q96SW2); test: as above; type: cell-based, E. coli S2060; settings: n = 3
Source text: as §1, §2, §3

[5] = target: full-length CRBN (MG-PACE circuit, SD35) (Homo sapiens, UniProt Q96SW2); test: as above; type: cell-based, E. coli S2060; settings: n = 3
[6] = target: T2, mmCRBN (MG-PACE circuit, SD55) (Mus musculus, UniProt Q8C7D2); test: Two-hybrid luciferase transcriptional activation in PMBN-permeabilized E. coli by compound-induced ternary complex of mouse CRBN with evolved degron, about 1 h at 37 °C, four-parameter fit.; type: cell-based, E. coli S2060; settings: n = 3
T2 construct: gene Crbn; mouse cereblon in mmCRBN MG-PACE circuit, partner SD55 (evolved ZF degron), in E. coli
Source text: (§4) Compared to human CRBN, mouse cereblon (mmCRBN) contains a V388I mutation that prevents IMiD-induced recruitment of ZF neosubstrates ([8]). The development of a potent and compact degron that is compatible with mmCRBN would facilitate studies that modulate target protein function in mouse systems. We hypothesized that MG-PACE could evolve degrons that overcome this difference in mmCRBN and respond to PT-179 in mouse cells. We constructed a mmCRBN MG-PACE circuit (Fig. 5A) and performed a total of 205 hours of PACE seeded with SD36-encoding phage (Fig. 5B).
(§5) Figure 5. MG-PACE evolves degrons that engage PT-179-bound mouse CRBN. (A) The mmCRBN MG-PACE circuit. Stringency is increased by expression of a competing ZF degron fused to maltose binding protein (MBP). (B) PACE in the mmCRBN MG-PACE circuit. (C) Mutations in evolved PT-179•mmCRBN-binding degrons. (D) PT-179-induced mmCRBN circuit activation (1 hr) by SD0 and evolved variants. […]
(§6) Chemically competent S2060 cells were co-transformed with accessory and complementary plasmids (Table S1). […] 96-well plates were then incubated in an Infinite M1000 Pro microplate reader (Tecan) at 37 °C with continuous shaking for ~1 hour prior to reading A600 nm and luminescence values. Raw luminescence values were then divided by the corresponding A600 nm values to normalize to cell density.

[7] = target: T3, mmCRBN (MG-PACE circuit, SD56) (Mus musculus, UniProt Q8C7D2); test: as above; type: cell-based, E. coli S2060; settings: n = 3
T3 construct: gene Crbn; mouse cereblon in mmCRBN MG-PACE circuit, partner SD56 (evolved ZF degron), in E. coli
Source text: as §4, §5, §6

[8] = target: FKBP12 and FRB (Homo sapiens, UniProt P42345+P62942); test: Rapamycin-sensitive MG-PACE circuit, luciferase activation; type: cell-based, E. coli; settings: without PMBN
Source text: as §3

[9] = target: FRB; settings: read-out: KD for FRB without FKBP12; cited from earlier work

**Q.** What does the source list for `O=C1CCC(N2C(=O)c3cc(F)c(N4CCOCC4)cc3C2=O)C(=O)N1` (centres unmarked) [PK-1016]?
**A.** lower affinity for CRBN than PT-179 [1]: 2 fold; Kd ([1]; competition with thalidomide–Cy5, KD estimated from Ki): 1.01 µM; PK-1016-induced degradation of SD40-eGFP (in words) ([2]; HEK293T cells): poor activity; also recorded: poor degrader

**Q.** Which EC50 [3] does the source give for `O=C1CCC(N2C(=O)c3ccc(N4CCOCC4)cc3C2=O)C(=O)N1` (centres unmarked) [PT-179, PT-179 (thalidomide derivative with a morpholine at the phthalimide 5-position, without the 4-amino group)] here?
**A.** 3.25 µM

**Q.** And the EC50 [4]?
**A.** 0.217 µM

**Q.** And the EC50 [5]?
**A.** 0.557 µM

**Q.** What about the EC50 [6] of the same compound?
**A.** 1.11 µM

**Q.** And the EC50 [7]?
**A.** 0.225 µM

**Q.** Which “degradation activity on SD40-tagged eGFP (in words)” value ([2]; fig. S11E) does the source give for `N#Cc1ccc(N2CCN(Cc3ccc(COc4cccc5c4CN([C@H]4CCC(=O)NC4=O)C5=O)cc3)CC2)c(F)c1` [mezigdomide, reference compound] here?
**A.** highly potent degradation activity

**Q.** With `CO[C@H]1C[C@@H]2CC[C@@H](C)[C@@](O)(O2)C(=O)C(=O)N2CCCC[C@H]2C(=O)O[C@H]([C@H](C)C[C@@H]2CC[C@@H](O)[C@H](OC)C2)CC(=O)[C@H](C)/C=C(\C)[C@@H](O)[C@@H](OC)C(=O)[C@H](C)C[C@H](C)/C=C/C=C/C=C/1C` [rapamycin] as the compound, how does the “rapamycin concentrations at which luciferase expression was detected” value [8] read?
**A.** > 1 µM

**Q.** What about the Kd [9] of the same compound?
**A.** 26 µM
